Here are results for 38 molecules from US5565566A (Discovery Therapeutics, Inc., priority 1995, dated 1996).

Counter-ions that a name gives are not always drawn. Like-named read-outs stand apart in the source and are kept apart here.

What is called Ki is the dissociation constant of the complex between target and ligand, obtained from inhibition or displacement.

In experiment [1] the target is T1, rat cortical A1 receptors (Rattus norvegicus, UniProt P25099).
T1 construct: rat cortical membranes were the receptor source; from tissue; host or cells: rat cerebral cortex (male Sprague Dawley) membranes
T1 sequence (P25099 1-326): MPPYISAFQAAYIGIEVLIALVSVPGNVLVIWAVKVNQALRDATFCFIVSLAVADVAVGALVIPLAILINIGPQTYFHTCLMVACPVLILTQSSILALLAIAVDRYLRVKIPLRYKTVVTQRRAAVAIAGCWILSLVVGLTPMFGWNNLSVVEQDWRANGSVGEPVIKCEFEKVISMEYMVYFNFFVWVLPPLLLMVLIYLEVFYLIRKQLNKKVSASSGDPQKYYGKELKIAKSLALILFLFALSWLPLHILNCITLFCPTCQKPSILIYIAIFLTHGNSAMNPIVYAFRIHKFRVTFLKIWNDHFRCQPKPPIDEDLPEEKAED
Kind of experiment: displacement of [3H]-CHA from rat cortical A1 receptors. It is filed as binding. The method, then: Varying concentrations of test compounds were incubated with the appropriate radioligand and membrane source for 1 hr at room temperature.
Assays were terminated by filtration over Whatman GF/B filters that had been pre-soaked with 0.1% polyethyleneimine using a 24 port Brandell cell havester. The filters were washed three times with 3 ml of ice cold buffer and transfered to plastic scintillation vials to which 4 ml of Beckman Ready protein scintillation cocktail was added. The tubes were shaken and counted in a Beckman 3801 scintillation counter that converted cpm to dpm.
Data were analyzed by utilizing the Ligand, commercial computer program (Munson and Rodbard, 1980).
Male Sprague Dawley rats were killed by decapitation and the brains removed. The cerebral cortices were homogenized in 50 mm Tris; 2mm MgCl2 (pH 7.4), and centrifuged at 40,000×g for 10 minutes. […] The homogenate was centrifuged, washed once, resuspended to a protein concentration of 5-10 mg/ml and frozen at -70° C. until use.

Experiment [2] deals with T2, A2 receptors (Rattus norvegicus, UniProt P30543).
T2 construct: Rat PC12 Membranes; endogenous in cells; host or cells: PC12
T2 sequence (P30543 whole entry): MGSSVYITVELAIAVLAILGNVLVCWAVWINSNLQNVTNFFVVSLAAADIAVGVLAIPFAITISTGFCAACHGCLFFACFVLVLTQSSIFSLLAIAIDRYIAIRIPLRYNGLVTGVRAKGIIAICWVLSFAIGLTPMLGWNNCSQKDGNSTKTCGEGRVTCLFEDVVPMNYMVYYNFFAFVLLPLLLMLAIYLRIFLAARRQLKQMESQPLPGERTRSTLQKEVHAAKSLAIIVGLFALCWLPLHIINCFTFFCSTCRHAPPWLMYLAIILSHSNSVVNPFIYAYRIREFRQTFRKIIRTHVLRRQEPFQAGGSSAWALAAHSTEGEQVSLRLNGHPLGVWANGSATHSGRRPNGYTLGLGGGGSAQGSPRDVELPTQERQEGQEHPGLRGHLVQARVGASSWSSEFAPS
Kind of experiment: antagonism of NECA-stimulated adenylate cyclase in rat PC12 membranes (B). It is filed as biochemical.

Experiment [3] addresses T3, A1 receptors (Rattus norvegicus, UniProt P25099).
T3 sequence (P25099 1-326): T1 sequence (P25099 1-326)
Put plainly: inhibition of binding of [3H]-phenylisopropyladenosine in rat brain membranes (D). Also on record: Rat Brain Membranes; from tissue; host or cells: rat brain (membranes). On the procedure: (§1) For activity at A1 receptors, compounds were tested as inhibitors of the binding of N^6 -[…]-[3H]-Phenylisopropyladenosine in rat brain membranes and for their ability to prevent R-PIA-induced inhibition of adenylate cyclase in rat fat cell membranes.
(D) Rat Brain Membranes

Experiment [4] concerns the target T3, A1 receptors. Put plainly: prevention of R-PIA-induced inhibition of adenylate cyclase in rat fat cell membranes (C). Also on record: from tissue. It is filed as biochemical. The method, then: as §1
(C) Rat Fat Cell Membranes

Experiment [5] deals with T4, A2 receptors (Homo sapiens, UniProt P29274).
T4 construct: Human Platelet Membranes; from tissue; host or cells: human platelets (membranes)
T4 sequence (P29274 whole entry): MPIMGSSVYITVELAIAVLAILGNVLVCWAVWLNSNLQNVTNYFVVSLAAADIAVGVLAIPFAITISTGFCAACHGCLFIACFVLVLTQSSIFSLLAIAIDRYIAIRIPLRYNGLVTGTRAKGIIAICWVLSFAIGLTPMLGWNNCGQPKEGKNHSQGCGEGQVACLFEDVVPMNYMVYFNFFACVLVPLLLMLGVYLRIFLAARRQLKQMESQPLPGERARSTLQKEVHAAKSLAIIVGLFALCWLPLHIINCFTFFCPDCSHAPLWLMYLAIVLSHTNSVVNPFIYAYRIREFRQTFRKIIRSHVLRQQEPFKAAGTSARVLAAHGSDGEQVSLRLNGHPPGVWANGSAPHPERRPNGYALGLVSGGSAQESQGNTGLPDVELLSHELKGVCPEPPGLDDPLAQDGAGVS
Put plainly: antagonism of NECA-stimulated adenylate cyclase in human platelet membranes (A). It is filed as biochemical.

Setting [6] is: [3H]-CHA, rat cortical A1 receptors, read-out: Rat Cortical Binding Constant Ki.
Where [7] appears, read: (B) Rat PC12 Membranes, A2 Effects.
[8] abbreviates: (A) Human Platelet Membranes, A2 Effects.
[9] abbreviates: (C) Rat Fat Cell Membranes, A1 Effects, read-out: KB vs PIA INHIBITION (Adenylate Cyclase).
Where [10] appears, read: (D) Rat Brain Membranes, A1 Effects, read-out: Ki vs [^3 H] PI (Binding).

Consider `Cn1cnc2c(N[C@H]3C[C@H]4CC[C@@H]3C4)nc(Cl)nc21` (relative stereo) [compound 0913, N^6-(endo-2-norbornyl)-2-chloro-9-MA], for which, in experiment [1] (setting [6]), the Ki was determined as 0.105 µM.
Consider `Cn1c(C2CCCC2)nc2c(N[C@H]3C[C@H]4CC[C@@H]3C4)ncnc21` (relative stereo) [compound 0964, N^6-(endo-2-norbornyl)-8-cyclopentyl-9-MA], for which, in experiment [1] (setting [6]), the Ki is 0.24 µM.
On the same count and under the same terms, in the case of `Cn1cnc2c(N[C@@H]3C[C@H]4CC[C@@H]3C4)ncnc21` (relative stereo) [compound 0978, N^6-(exo-2-norbornyl)-9-MA] it was 0.43 µM; in that of `Cn1c(=O)[nH]c2c(N[C@H]3C[C@H]4CC[C@@H]3C4)ncnc21` (relative stereo) [compound 1001, N^6-(endo-2-norbornyl)-8-oxo-9-MA], ~10 µM; in that of `Cn1c(Br)nc2c(N[C@H]3C[C@H]4CC[C@@H]3C4)ncnc21` (relative stereo) [compound 1003, N^6-(endo-2-norbornyl)-8-bromo-9-MA], 0.013 µM.
For `Cn1c(N)nc2c(N[C@H]3C[C@H]4CC[C@@H]3C4)ncnc21` (relative stereo) [compound 1005, N^6-(endo-2-norbornyl)-8-amino-9-MA], the Ki in experiment [1] (setting [6]) was determined as 0.87 µM.
For the molecule `Cn1c(C(=O)O)nc2c(N[C@H]3C[C@H]4CC[C@@H]3C4)ncnc21` (relative stereo) [compound 1006, N^6-(endo-2-norbornyl)-8-carboxy-9-MA Sodium Salt], in experiment [1] (setting [6]), the inhibition constant Ki was > 10 µM.
Turning to `OCCOCn1cnc2c(N[C@H]3C[C@H]4CC[C@@H]3C4)ncnc21` (relative stereo) [compound 1059, N^6-(endo-2-norbornyl)-9-[(2-hydroxyethoxy)methyl]adenine], in experiment [1] (setting [6]), the Ki worked out at 0.49 µM.
In the case of `Cn1c(S)nc2c(N[C@H]3C[C@H]4CC[C@@H]3C4)ncnc21` (relative stereo) [compound 1060, N^6-(endo-2-norbornyl)-8-thio-9-MA], the Ki in experiment [1] (setting [6]) was 0.37 µM.
The same measure, in the same setting: in the case of `Cn1c(Cl)nc2c(N[C@H]3C[C@H]4CC[C@@H]3C4)ncnc21` (relative stereo) [compound 1061, N^6-(endo-2-norbornyl)-8-chloro-9-MA] it was 0.015 µM.
For the molecule `Cn1c(S(=O)(=O)O)nc2c(N[C@H]3C[C@H]4CC[C@@H]3C4)ncnc21` (relative stereo) [compound 1062, N^6-(endo-2-norbornyl)-8-sulfonate-9-MA sodium salt], in experiment [1] (setting [6]), the Ki was > 100 µM.
Same read-out and setting: in the case of `Cn1cnc2c(N[C@H]3C[C@H]4CC[C@@H]3C4)nc(O)nc21` (relative stereo) [compound 1063, N^6-(Endo-2-norbornyl)-2-oxo-9-MA] it was 1.12 µM.
With `Cn1c(NC2CCCC2)nc2c(N[C@H]3C[C@H]4CC[C@@H]3C4)ncnc21` (relative stereo) [compound 1064, N^6-(endo-2-norbornyl)-8-cyclopentylamine-9-MA], in experiment [1] (setting [6]), the Ki came to 1.9 µM.
As to `Cn1cnc2c(N)ncnc21` [9-Methyladenine (9-MA), 9-Methyladenine, reference compound], the figures for the Kb on A2 receptors [2] and at A1 receptors [4] were 24 µM and 112 µM, respectively. This molecule also gave a Ki on A1 receptors [3] of 106 µM.
Consider `Cn1cnc2c(NC3CCCCC3)ncnc21` [N^6 -Cyclohexyl-9-MA], for which the Kb came out at 21 µM at A2 receptors [2] (setting [7]), 7.4 µM on A2 receptors [5] (setting [8]) and 0.65 µM on A1 receptors [4] (setting [9]).
As for `CNc1ncnc2c1ncn2C` [N^6 -Methyl-9-MA], the Kb on A2 receptors [2] was found to be 130 µM; at A2 receptors [5], 150 µM; at A1 receptors [4], 220 µM. Moreover, the Ki at A1 receptors [3] was > 100 µM.
For `Cn1cnc2c(Nc3ccccc3)ncnc21` [N^6 Phenyl-9-MA, N^6 -Phenyl-9-MA], the Kb was 107 µM at A2 receptors [2] (setting [7]), 21 µM on A2 receptors [5] (setting [8]) and 10 µM on A1 receptors [4] (setting [9]). Also, on A1 receptors [3] (setting [10]), the Ki was 25 µM.
In the case of `C[C@H](Cc1ccccc1)Nc1ncnc2c1ncn2C` [N^6 R-1-Phenyl-2-propyl-9-MA, N^6 -R-1-Phenyl-2-propyl-9-MA], the Kb on A2 receptors [2] (setting [7]) is 25 µM; on A2 receptors [5] (setting [8]) it was 13 µM; on A1 receptors [4], 7.2 µM. In addition, at A1 receptors [3], the Ki worked out at 2.5 µM.
`Cn1cnc2c(NCCc3cccnc3)ncnc21` [N^6-2-(3-Pyridylethyl)-9-MA]: the Kb at A2 receptors [2] (setting [7]) is 117 µM; at A2 receptors [5] (setting [8]), 92 µM; on A1 receptors [4] (setting [9]) it was 96 µM. At A1 receptors [3] (setting [10]), the Ki was 41 µM.
As to `Cn1cnc2c(NCCc3ccsc3)ncnc21` [N^6-2-(3-Thienylethyl)-9-MA], the figures for the Kb at A2 receptors [2] (setting [7]), on A2 receptors [5] (setting [8]) and at A1 receptors [4] (setting [9]) were 25 µM, 14 µM and 24 µM, respectively. Moreover, the Ki on A1 receptors [3] (setting [10]) was found to be 20 µM.
With `Cn1cnc2c(NCc3ccccc3)ncnc21` [N^6-2-Benzyl-9-MA, N^6 -Benzyl-9-MA], the Kb at A2 receptors [2] (setting [7]) was found to be 100 µM; on A2 receptors [5] (setting [8]), 57 µM; on A1 receptors [4] (setting [9]) it was 49 µM. Moreover, the Ki on A1 receptors [3] (setting [10]) was determined as 17 µM.
Regarding `Cn1cnc2c(Nc3ccccc3F)ncnc21` [N^6-2-Fluorophenyl-9-MA, N^6-2-Fluorophenyl-9-MA], the Kb is 29 µM at A2 receptors [2] (setting [7]), 11 µM on A2 receptors [5] (setting [8]) and 17 µM at A1 receptors [4] (setting [9]). In addition, on A1 receptors [3] (setting [10]), the Ki came to 8.5 µM.
For `Cn1cnc2c(NC3CCC3)ncnc21` [N^6-cyclobutyl-0-MA, N^6 -Cyclobutyl-9-Methyl Adenine] the same measures were 23 µM, 5.5 µM, 0.89 µM and 1.2 µM.
For `Cn1c(C2CCCC2)nc2c(NC3CCCC3)ncnc21` [compound 0965, N^6-cyclopentyl-8-cyclopentyl-9-MA], the Ki in experiment [1] (setting [6]) came to 0.141 µM.
Consider `Cn1cnc2c(NCC(c3ccccc3)c3ccccc3)ncnc21` [compound 0966, N^6-2,2-diphenylethyl-9-MA], for which the Ki in experiment [1] (setting [6]) was > 10 µM.
As to `Cn1cnc2c(NCCc3ccccc3Cl)ncnc21` [compound 0967, N^6-2(2-chlorophenylethyl)9-MA], the Ki in experiment [1] (setting [6]) is > 10 µM.
Same read-out and setting: as for `Cn1cnc2c(NCCN)ncnc21` [compound 0982, N^6-2-Aminoethyl-9-MA], the figure is > 10 µM; as for `CN(C)CCNc1ncnc2c1ncn2C` [compound 0983, N^6-(2,2-N-dimethylethyl)-9-MA], > 10 µM.
For `C[C@@H](Nc1ncnc2c1ncn2C)c1ccccc1` [compound 0984, N^6 -R-1-phenyl-1-ethyl-9-MA], the Ki in experiment [1] (setting [6]) was > 10 µM.
Take `C[C@H](Nc1ncnc2c1ncn2C)c1ccccc1` [compound 0985, N^6 -S-1-phenyl-1-ethyl-9-MA]: in experiment [1] (setting [6]), the Ki was > 100 µM.
As to `C[C@@H](Cc1ccccc1)Nc1ncnc2c1ncn2C` [compound 0986, N^6 -S-1-phenyl-2-propyl-9-MA], the Kb stood at 74 µM on A2 receptors [2] (setting [7]) and 23 µM on A2 receptors [5]. Further, the Ki in experiment [1] is > 10 µM; at A1 receptors [3] it was 10 µM.
For `Cn1cnc2c(Nc3cccs3)ncnc21` [compound 0987, N6 2-thienyl-9-MA], in experiment [1] (setting [6]), the Ki was > 100 µM.
In the case of `Cc1cc(Cl)ccc1Nc1ncnc2c1ncn2C` [compound 0988, N6(4-chloro-2-methylphenyl)-9-MA], the Ki in experiment [1] (setting [6]) was > 10 µM.
Take `Cn1cnc2c(NCCc3c[nH]c4ccccc34)ncnc21` [compound 0989, N^6-2-(3-ethylindole)-9-MA]: the Ki in experiment [1] (setting [6]) is > 10 µM.
For `Cn1cnc2c(NCCc3ccccc3)ncnc21` [compound 0990, N^6-2-(phenethyl)9-MA], the Kb was 120 µM at A2 receptors [2] (setting [7]), 170 µM on A2 receptors [5] (setting [8]) and > 300 µM at A1 receptors [4] (setting [9]). The results for the Ki (in experiment [1] (setting [6]); at A1 receptors [3] (setting [10])) were > 10 µM and > 100 µM, respectively.
For `COc1cc(CCNc2ncnc3c2ncn3C)cc(OC)c1OC` [compound 1002, N^6-2-(3,4,5-Trimethoxyphenyl) ethyl-9-MA] the same measures were 40 µM, 23 µM, 122 µM, > 10 µM and > 100 µM.
As for `CCCC(Nc1ncnc2c1ncn2C)C(=O)O` (centres unmarked) [compound 1004, N^6-1-carboxy-1-butyl-9-MA], the Ki in experiment [1] (setting [6]) is > 100 µM.
With “N^6 -Methylcyclopentyl-9-MA [N^6 -Methylcylopentyl-9-MA]”, the Kb amounted to 56 µM at A2 receptors [2] (read-out: KB vs NECA Stimulation (Adenylate Cyclase), (B) Rat PC12 Membranes, A2 Effects); 45 µM on A2 receptors [5] (read-out: KB vs NECA Stimulation (Adenylate Cyclase), (A) Human Platelet Membranes, A2 Effects); 9 µM at A1 receptors [4] (setting [9]). For the same molecule, the Ki at A1 receptors [3] (setting [10]) turned out to be 2.5 µM.
